Laboratory results taken from patent US8153791B2, “Substituted pyrimidinyl oxime kinase inhibitors” (Janssen Pharmaceutica N.V., priority 2005, dated 2012).

Experiments:
HER-2 = biological target: T1, HER-2 (Homo sapiens, UniProt P04626); experiment: HER-2 Kinase Assay; format: biochemical; details: read-out: HER2 IC50;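 note: HER2 kinase reaction read by scintillation counting, inhibition scaled between maximum and minimum signals set on each plate, IC50 from inhibition against log concentration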
T1 construct: purchased Proqinase (Freiburg, Germany)
T1 sequence (P04626 679-1255): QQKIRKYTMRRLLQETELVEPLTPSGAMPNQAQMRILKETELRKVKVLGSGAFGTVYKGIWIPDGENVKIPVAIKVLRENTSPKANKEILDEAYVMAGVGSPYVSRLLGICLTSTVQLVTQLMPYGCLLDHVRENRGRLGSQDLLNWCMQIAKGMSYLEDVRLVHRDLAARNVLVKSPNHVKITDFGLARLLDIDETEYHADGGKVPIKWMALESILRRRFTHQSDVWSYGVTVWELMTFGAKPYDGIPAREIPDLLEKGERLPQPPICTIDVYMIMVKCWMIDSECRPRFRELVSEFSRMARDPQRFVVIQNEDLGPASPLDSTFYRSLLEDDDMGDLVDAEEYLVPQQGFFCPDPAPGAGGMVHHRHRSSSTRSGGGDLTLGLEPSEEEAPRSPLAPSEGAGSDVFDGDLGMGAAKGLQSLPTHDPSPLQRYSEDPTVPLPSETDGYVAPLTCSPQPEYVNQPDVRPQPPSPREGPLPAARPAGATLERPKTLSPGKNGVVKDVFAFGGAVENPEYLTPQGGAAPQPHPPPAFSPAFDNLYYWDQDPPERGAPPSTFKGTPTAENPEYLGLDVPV

[1] = system: A431 epidermoid carcinoma; experiment: In vitro cell proliferation inhibition, A431; format: cell-based; details: Homo sapiens, A-431; A431 cells, 14C-thymidine incorporation; read-out: IC50 A431
From the text: (§1) The ability of a test compound to inhibit unregulated in vitro cell proliferation may be determined by measuring incorporation of ^14C-labelled thymidine into newly synthesized DNA within cell lines derived from carcinomas originating from several tissues. Accordingly, the effect of a test compound on proliferation of cells with a variety of phenotypes may be determined.
(§2) Carcinoma cell lines used include the HeLa cervical adenocarcinoma from the American Type Culture Collection (ATCC Cat. #CCL2), SK-OV-3 ovarian carcinoma (ATCC Cat. #HTB-77), MCF-7 breast carcinoma (ATCC Cat. #HTB-22), BT474 breast carcinoma (ATCC Cat. #HTB-20), SKBR3 breast carcinoma (ATCC Cat. #HTB-30), A431 epidermoid carcinoma (ATCC Cat. #CRL-1555) and NCI-N87 gastric carcinoma (ATCC Cat. #CRL-5822).
(§3) The carcinoma cells are trypsinized and counted. The cells (3000-8000 count) are added to each well of a 96-well CytoStar tissue culture treated scintillating microplate (Amersham #RPNQ0160) in complete medium (100 μL) and the plate is then incubated in complete medium for 24 hrs at 37° C. in an inert atmosphere containing 5% CO2.
(§4) Test compound (1 μL) in 100% DMSO is added to the plate test-wells with DMSO only added to control-wells. The plate is incubated in complete medium for a second 24 hr period at 37° C. in an atmosphere containing 5% CO2.
(§5) An aliquot of a solution of Methyl ^14C-thymidine (56 mC/mmol) (NEN #NEC568 or Amersham #CFA532) and complete medium (20 μL to provide 0.2 μCi/well) is then added to each well and the plate is incubated for a third 24 hr period at 37° C. in an atmosphere containing 5% CO2.
(§6) The plate contents are then discarded, the plate is washed twice with PBS (200 μL) and then PBS (200 μL) is added to each well. The plate is sealed and the degree of methyl ^14C-thymidine incorporation is quantified on a Packard Top Count.
(§7) Cell proliferation of the Hela cell line was measured using the ATP-Lite method as described in the ATP Lite Kit (Perkin-Elmer Kit Number 6106941) or the C^14 method as described above. Cell proliferation of the other cell lines was measured using the C^14 method.
(§8) The term “NT” means that the compound indicated was not tested in a particular cell line. The lack of such testing is not intended to imply a belief that the compound is not otherwise active in a particular cell line or any other cell line not tested.

SKBR3 breast carcinoma = experiment: In vitro cell proliferation inhibition, SKBR3; format: cell-based; details: Homo sapiens, SK-BR-3; SKBR3 cells, 14C-thymidine incorporation; read-out: IC50 SKBR3
From the text: as §1, §2, §3, §4, §5, §6, §7, §8

[2] = system: NCI-N87 gastric carcinoma; experiment: In vitro cell proliferation inhibition, NCI-N87; format: cell-based; details: Homo sapiens, NCI-N87; N87 cells, 14C-thymidine incorporation; read-out: IC50 N87
From the text: as §1, §2, §3, §4, §5, §6, §7, §8

BT474 breast carcinoma = experiment: In vitro cell proliferation inhibition, BT474; format: cell-based; details: Homo sapiens, BT-474; BT474 cells, 14C-thymidine incorporation; read-out: IC50 BT474
From the text: as §1, §2, §3, §4, §5, §6, §7, §8

[3] = system: A431 epidermoid carcinoma cells; experiment: A431 Human Tumor Xenograft Model; format: in vivo, nu/nu mice; details: treatment groups 5-10, 100 mg/kg oral once daily for 30 days
From the text: The A431 epidermoid carcinoma cell line overexpresses EGFR, activating signaling pathways responsible for driving the proliferation, invasion and survival of cancer cells and forming tumors in nude mice (Giard D J, Aaronson S A, Todaro G J, Arnstein P, Kersey J H, Dosik H, Parks W P, In vitro cultivation of human tumors: establishment of cell lines derived from a series of solid tumors, J. Natl. Cancer Inst., 1973, 51, 1417-1423; and, Kawamoto T, Sato J D, Le A, Polikoff J, Sato G H, Mendelsohn J, Growth stimulation of A431 cells by epidermal growth factor: identification of high-affinity receptors for epidermal growth factor by an anti-receptor monoclonal antibody, Proc. Natl. Acad. Sci. USA, 1983, 80, 1337-1341).
Female nu/nu mice (Charles River; 8 to 9 weeks of age) were implanted subcutaneously in the flank with 4×10^6 A431 epidermoid carcinoma cells (obtained from the American Type Culture Collection, ATCC Cat. #CRL-1555). Animals were weighed twice weekly during the study and examined frequently.
Tumor size was monitored twice weekly and then daily as the neoplasms reached the target weight range (about 75 mg). Animals were pair-matched when tumors were in the 62 to 126 mg range (group mean tumor size: 70 to 74 mg). Estimated tumor weight was calculated using the formula of Example 4.
A test compound was orally administered daily in the test treatment group after the tumor reached the target weight. For treatment groups 1 and 2, each dose of test compound was administered once daily for 25 days. For treatment group 3, each dose of test compound was administered twice daily for 25 days. For treatment group 4, the test compound was administered twice daily for 30 days. For treatment group 5-10, the test compound was administered once daily for 30 days.
(§9) Statistical significance was evaluated by comparing the vehicle group to the test group using a two tailed Students t test. The term “NC” means that the P value for the treatment group indicated was not calculated. The lack of such calculation is not intended to imply a belief that the activity of the compound is not otherwise statistically significant in this particular cell line or in any other cell line not tested.

[4] = system: HeLa cervical adenocarcinoma; experiment: In vitro cell proliferation inhibition, HeLa; format: cell-based; details: Homo sapiens; HeLa cell line; ATP-Lite method or C14 thymidine method; read-out: HeLa IC50
From the text: as §1, §2, §3, §4, §5, §6, §7, §8

[5] = system: N87 gastric carcinoma cells; experiment: N87 Human Tumor Xenograft Model; format: in vivo, nu/nu mice; details: treatment groups 5-10, 100 mg/kg oral once daily for 30 days
From the text: The N87 gastric carcinoma cell line overexpresses HER-2 as a result of gene amplification and forms tumors in nude mice (Kasprzyk P G, Song S U, Di Fiore P P, King C R, Therapy of an animal model of human gastric cancer using a combination of anti-erbB-2 monoclonal antibodies, Cancer Res., 1992, 52, 2771-2776).
Female nu/nu mice (Charles River; 8 to 9 weeks of age) were implanted subcutaneously with from 3×10^6 to 5×10^6 N87 gastric carcinoma cells (obtained from the American Type Culture Collection, ATCC Cat. #CRL-5822) in the flank. Animals were weighed twice weekly during the study and examined frequently.
Tumor size was monitored twice weekly and then daily as the neoplasms reached the target weight range (about 75 mg). Animals were pair-matched when tumors were in the 62 to 126 mg range (group mean tumor size: 70 to 74 mg). Estimated tumor weight was calculated using the formula: […]
A test compound was orally administered daily in the test treatment group after the tumor reached the target weight. For treatment group 1, the test compound was administered once daily for 35 days. For treatment group 2, the test compound was administered once daily for 30 days. For treatment group 3, each dose of test compound was administered once daily for 30 days. For treatment group 4, each dose of test compound was administered once daily for 36 days. For treatment group 5-10, the test compound was administered once daily for 30 days.
Tumor weight was measured daily for subjects (n=8) in the test group and the matched subjects (n=8) in the vehicle-treated group.
The tumor growth inhibition (in percent) was calculated on the last day of the study using the formula: […]
as §9

EGFR = biological target: T2, EGFR (Homo sapiens, UniProt P00533); experiment: EGFR Kinase Assay; format: biochemical;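 note: recombinant GST-tagged EGFR expressed in Sf9 cells, phosphorylating biotinylated polyGluTyr with γ-33P ATP on Streptavidin Flashplates, 1 h at 30 °C, scintillation counting, inhibition relative to plate maximum and minimum signals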
T2 construct: The intracellular portion of EGFR started at nucleotide 2189 (corresponding to amino acid 667) and ended at the termination codon; made in house; host or cells: Sf9 insect cells (baculovirus)
T2 sequence (P00533 669-1210 limits assumed): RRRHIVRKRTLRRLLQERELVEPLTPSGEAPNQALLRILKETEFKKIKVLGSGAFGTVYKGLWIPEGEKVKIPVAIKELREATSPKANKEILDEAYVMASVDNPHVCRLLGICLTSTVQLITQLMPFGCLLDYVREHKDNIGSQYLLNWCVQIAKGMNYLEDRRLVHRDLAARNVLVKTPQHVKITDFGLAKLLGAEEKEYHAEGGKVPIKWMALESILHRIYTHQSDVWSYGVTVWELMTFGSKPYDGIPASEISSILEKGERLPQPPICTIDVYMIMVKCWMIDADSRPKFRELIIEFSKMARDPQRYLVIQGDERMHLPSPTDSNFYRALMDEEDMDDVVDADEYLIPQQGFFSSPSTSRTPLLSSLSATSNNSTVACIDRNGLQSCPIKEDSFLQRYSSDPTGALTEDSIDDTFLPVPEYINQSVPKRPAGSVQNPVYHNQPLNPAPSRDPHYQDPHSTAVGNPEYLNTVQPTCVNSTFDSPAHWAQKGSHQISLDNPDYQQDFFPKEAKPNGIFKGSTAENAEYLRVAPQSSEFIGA

IC50 (HER-2) [µM] | IC50 [1] [µM] | IC50 (SKBR3 breast carcinoma) [µM] | IC50 [2] [µM] | IC50 (BT474 breast carcinoma) [µM] | IC50 [4] [µM] | IC50 (EGFR) [µM] | SMILES | A431 Tumor Growth Inhibition TGI [3] [%] | N87 Tumor Growth Inhibition TGI [5] [%]
0.06 | 0.009 | 0.06 | 0.03 | 0.05 | 25.1 | – | Nc1ncnc(Nc2ccc3c(ccn3Cc3cccc(F)c3)c2)c1/C=N/OCCN1CCOCC1 [Cpd 101, (5E)-4-amino-6-[1-(3-fluoro-benzyl)-1H-indol-5-ylamino]-pyrimidine-5-carbaldehyde O-(2-morpholin-4-yl-ethyl)-oxime] | 51 | 66
– | – | – | – | – | – | 0.02 | Nc1ncnc(Nc2ccc(OCc3ccccc3)c(Cl)c2)c1/C=N/OCCCN1CCOCC1 [Cpd 112, (5E)-4-amino-6-(4-benzyloxy-3-chloro-phenylamino)-pyrimidine-5-carbaldehyde O-(3-morpholin-4-yl-propyl)-oxime] | 33 | 48.6
– | – | – | – | – | – | – | Nc1ncnc(Nc2ccc(OCc3ccccc3)c(Cl)c2)c1/C=N/OCc1ccccn1 [Cpd 114, (5E)-4-amino-6-(4-benzyloxy-3-chloro-phenylamino)-pyrimidine-5-carbaldehyde O-pyridin-2-ylmethyl-oxime] | −3 | 47
– | – | – | – | – | – | – | COCCNCCCO/N=C/c1c(N)ncnc1Nc1ccc(OCc2ccccc2)c(Cl)c1 [Cpd 115, (5E)-4-amino-6-(4-benzyloxy-3-chloro-phenylamino)-pyrimidine-5-carbaldehyde O-[3-(2-methoxy-ethylamino)-propyl]-oxime] | 4 | 50.2
